Series [1] relates to ryr1b homozygous mutant zebrafish. Put plainly: Secondary screen of individual chemicals in ryr1b zebrafish (vitality: survival and touch-evoked escape behavior). Further details: key: vitality score, theoretical range 0–60; DMSO controls expected ~50. The note with it: 2.0 μg/mL from 1 dpf, scored at 5 dpf; average of two replicates of 20 larvae from heterozygous ryr1b matings; score=(#Dead*0)+(#ryr1b*1)+(#Moderate*2)+(#Wild-type*3), max 60, expected 50 in DMSO controls. It counts as in vivo, zebrafish (Danio rerio). How it is done: Each scored compound represents an average of two replicates, consisting of 20 larvae from heterozygous ryr1b matings (n=40). Larvae obtained from wild-type AB matings served as positive controls. […] Significance was determined by pairwise comparisons between control and experimental pools using a Student's t-test. Vitality score=(#Dead*0)+(#ryr1b*1)+(#Moderate*2)+(#Wild-type*3). Standard deviations shown for positive and negative controls were calculated based on results from 5 and 21 independent experiments, respectively.
Primary screen. For the primary screen, twenty embryos (1 dpf) resulting from a mating of heterozygous ryr1b zebrafish were manually sorted into 48-well plates containing 250 μL embryo 1×E3 medium (5.0 mM NaCl, 0.17 mM KCl, 0.33 mM CaCl2*2H2O, 0.33 mM MgSO4*7H2O) and four pooled chemicals from the Prestwick2 chemical library. Each chemical pool was assayed in duplicate using embryos from two independent clutches, for a total of 24 distinct pools tested per plate (FIG. 1). The chemicals were dissolved to a final concentration of 2.0 μg/mL and 0.4% DMSO, which is similar to concentrations other groups have used in zebrafish studies^37,38. As a negative control, twenty embryos from each clutch were cultured without chemicals in vehicle only (0.4% DMSO) (FIG. 1). Larvae obtained from wild-type (Oregon AB) matings served as positive controls in separate plates. All plates containing embryos were incubated at 28.5° C. and maintained as initially treated for 5 days. Dead embryos were removed from wells when observed during the first 4 days of the study. On day 5, dead or “motion-dead” larvae were scored alongside living larvae.
At 5 dpf, pools were scored for their ability to improve the survival and touch-evoked escape behaviors of ryr1b homozygous mutants using the following numeric scoring system: 3=4-6 cm, fast (wild-type); 2=2-4 cm (moderate); 1=<2 cm, slow (ryr1b); 0=no movement (dead) (FIG. 2A). Survival, swimming, and combined endpoints of the primary screen were then examined for their ability to distinguish positive from negative controls. […] Taking into account both experimental replicates (n=40), hit pools contained at least 37 alive larvae on day 5 (i.e., 70-100% of the larvae assumed to be ryr1b mutants survived the duration of the study), and were selected for analysis in a secondary screen.
In the secondary screen, hit pools were separated and tested as 68 individual chemicals. Screening was performed precisely as described for the primary screen with few modifications. Embryos were raised in wells containing 750 μL 1×E3 medium, as opposed to 250 μL, although the final concentration of each compound was maintained at 2.0 μg/mL. […] Vitality scores, weighting survival and swimming ratios appropriately, were calculated as (#Dead*0)+(#ryr1b*1)+(#Moderate*2)+(#Wild-type*3). Theoretical maximum and minimum scores were 60 and 0, respectively, with an expected score of 50 in DMSO-treated controls. Secondary screen hits (P<0.05), considered “candidate” compounds, are currently being examined in dose-response and long-term studies.
The second tier of the chemical screen was performed two years following the primary screen, with a fully established ryr1b^+/− line. Healthier clutches tended to result in better survival of homozygous ryr1b mutants. Median mutant life spans more accurately adhered to the 7-15 day estimate previously published^30. Therefore, in the secondary screen, hit chemical pools were separated into individual compounds and each of 68 total compounds was examined for its ability to positively influence both ryr1b survival and motor function (referred to in combination as “vitality”). […] These included two anti-inflammatory agents (sulfasalazine and ketoprofen), two monoamine oxidase inhibitors (pargyline hydrochloride and tranylcypromine hydrochloride), and two ion channel modulators (metolazone and nimodipine).

Series [2] has the same test system. It counts as in vivo, zebrafish (Danio rerio). The note with it: for touch-evoked escape behaviors / mobility of ryr1b mutants: treated from 1 dpf, scored and genotyped at 5 dpf. How it is done: In two independent experiments, two pools of 20 larvae from heterozygous ryr1b matings were treated with DMSO or with one of three different concentrations of NIF (1.0-100.0 μg/mL) at 1 dpf and evaluated in terms of touch-evoked escape behaviors at 5 dpf (n=40). Following phenotypic scoring, all living embryos were genotyped using three-primer genomic PCR. Swimming scores for larvae genotype-confirmed as ryr1b homozygous mutants are shown as a percentage of the total number of living larvae in each dose category: 1=poor swimming; 2 or 3=moderate or wild-type swimming. NIF improved mobility of ryr1b mutants at a dose of 10 μg/mL. […] Phospho-Stat3 band intensities were normalized to β-Actin control bands and quantified in Image J (NIH).
FIGS. 12A-12C show a ketoprofen dose-response and proposed mechanistic link. […] FIG. 12B is a dose-response graph for ketoprofen (KETO). Two pools of 20 larvae from heterozygous ryr1b matings were treated with DMSO or four different concentrations of KETO (1.0-100.0 μg/mL) at 1 dpf and evaluated in terms of touch-evoked escape behaviors at 5 dpf (n=40). Following phenotypic scoring, all living embryos were genotyped using three-primer genomic PCR. Swimming scores for larvae genotype-confirmed as ryr1b homozygous mutants are shown as a percentage of the total number of living larvae in each dose category: 1=poor swimming, 2 or 3=moderate or wild-type swimming. […] Phosphorylated STATs form dimers, translocate to nuclei, and from there are associated with various transcriptional activities. Dubowitz, V. and Sewry, C. (2006) Muscle Biopsy: A Practical Approach. Elsevier-Health Sciences Division.
The relatively relaxed zebrafish was initially identified due to a spontaneous autosomal recessive mutation within the ryr1b gene^30. Specifically, ryr1b mutants carry a 4046 base pair (bp) DNA insertion in the intron between exons 48 and 49 that includes an additional 32 bp sequence found in mutant cDNA (FIG. 3)^30. Genotypes of individual embryos were examined using three-primer genomic PCR, with an expected wild-type band of 1,668 bp and a mutant band of 653 bp. Primer sequences were as follows: ryr1b #1 (forward): 5′-[…]-3′ (SEQ ID NO: 4); ryr1b #2 (reverse): 5′-[…]-3′ (SEQ ID NO: 5); and ryr1b #3 (reverse): 5′-[…]-3′ (SEQ ID NO: 6).
The primary and secondary screens only tested chemical pools and individual compounds at a single concentration (2.0 μg/mL). Although beneficial in a high-throughput context, this approach can result in false positives and false negatives. […] For analysis, pools of 20 larvae obtained from heterozygous ryr1b matings were treated in duplicate with DMSO or with one of three different concentrations of NIF (1.0-100.0 μg/mL) at 1 dpf and scored for touch-evoked escape behaviors at 5 dpf. All scored larvae were then genotyped using three-primer genomic PCR. […] Next, hit expansion was used to verify JAK-STAT as a potential molecular pathway involved in ryr1b mutant pathology. […] A higher effective dose for 5,15-DPP was consistent with the IC50 measurements reported for each compound^40,41.

Series [3] has as its system satellite cell expansion and muscle generation. As to conditions: in vitro and in mice, aging and dystrophic mouse models; cited from earlier work.
In series [4] the test system is myofiber apoptosis and muscle strength. The note with it: mouse, in vivo; cited from earlier work.
The test system of series [5] is IL-6. As to conditions: skeletal muscle; cited from earlier work.
Series [6] deals with ryr1b phenotype. As to conditions: zebrafish, in vivo; cited from earlier work.
The subject of series [7] is IL-6. As to conditions: in vitro; cited from earlier work.

Consider 14 compounds from patent US10973912B2, “Treatment for myopathy” (Children's Medical Center Corporation, priority 2015, dated 2021).

“And” between values parts separate entries of the source, which are not always exact repeats. Identical values can stand only once. Counter-ions that a name gives are not always drawn.

With `CC(=O)N(CC(O)CO)c1c(I)c(C(=O)NCC(O)CO)c(I)c(C(=O)NCC(O)CO)c1I` (stereo not drawn) [Iohexol], the “Vitality Score” value in series [1] was 53.5.
Turning to `C1=Cc2nc1cc1ccc([nH]1)c(-c1ccccc1)c1nc(cc3ccc([nH]3)c2-c2ccccc2)C=C1` [5,15-DPP, 5,15-diphenylporphyrin], the “genotyped ryr1b larvae in treated pools (evidence of toxicity)” value in series [2] (5 dpf, 25% mutants expected) was “less than 25%”. The “dose that improved mobility of ryr1b mutants / optimal activity” value in series [2] (treated at 1 dpf, touch-evoked escape behaviors at 5 dpf, tested 1.0-100.0 μg/mL) is 100.0 µg/mL and 100 µg/mL. In addition, in series [2], the “touch-evoked escape behaviors / mobility of ryr1b mutants” value was “ryr1b mutants were among larvae that exhibited wild-type touch-evoked escape behaviors”. Further, in series [3], the “satellite cell expansion and muscle generation” value was “promotes satellite cell expansion and rescues defects in muscle generation”.
`C#CCN(C)Cc1ccccc1` [Pargyline hydrochloride]: in series [4], the “myofiber apoptosis and muscle strength” value was “significantly decreases myofiber apoptosis and increases muscle strength”. Further, the “Vitality Score” value in series [1] stood at 58.0.
For `N#C/C(=C/c1ccc(O)c(O)c1)C(=O)NCc1ccccc1` [AG490], the “satellite cell expansion and muscle generation” value in series [3] was “promotes satellite cell expansion and rescues defects in muscle generation”.
With `CN(C)C/C=C(/c1ccc(Br)cc1)c1cccnc1` [Zimelidine dihydrochloride monohydrate], the “Vitality Score” value in series [1] is reported as 55.0.
For the compound `O=C(O)c1cc(/N=N/c2ccc(S(=O)(=O)Nc3ccccn3)cc2)ccc1O` [Sulfasalazine], in series [5], the “IL-6 release” value is “inhibit IL-6 release in skeletal muscle”. Besides, in series [1], the “Vitality Score” value came out at 57.0.
On to `Clc1ccc(COC(Cn2ccnc2)c2ccc(Cl)cc2Cl)c(Cl)c1` (stereo not drawn) [Miconazole], for which the “Vitality Score” value in series [1] worked out at 54.0.
Take `Clc1ccccc1CN1CCc2sccc2C1` [Ticlopidine hydrochloride]: the “Vitality Score” value in series [1] turned out to be 54.0.
The same measure, in the same setting: to `Cc1ccccc1N1C(=O)c2cc(S(N)(=O)=O)c(Cl)cc2NC1C` (stereo not drawn) [Metolazone] belongs 55.5.
As for `CC(=O)N[C@@H](CS)C(=O)O` [N-acetylcysteine], the “effect on ryr1b phenotype” value in series [6] is “shown to ameliorate select aspects of the ryr1b phenotype”.
With `COCCOC(=O)C1=C(C)NC(C)=C(C(=O)OC(C)C)C1c1cccc([N+](=O)[O-])c1` (stereo not drawn) [Nimodipine], the “Vitality Score” value in series [1] is 52.0.
Regarding `CCCCOc1cc(C(=O)OCCN(CC)CC)ccc1N` [Benoxinate hydrochloride], the “Vitality Score” value in series [1] is given as 52.5.
The same measure, in the same setting: to `N[C@@H]1C[C@H]1c1ccccc1` [Tranylcypromine hydrochloride] belongs 52.0.
Regarding `CC(C(=O)O)c1cccc(C(=O)c2ccccc2)c1` (stereo not drawn) [Ketoprofen], the “production of IL-6” value in series [7] is “inhibits the production of IL-6 in vitro”. For the same compound, in series [2], the “touch-evoked escape behaviors / mobility of ryr1b mutants” value was “confirmed a relationship between ketoprofen and improvements in ryr1b mobility”. For the same compound, the “Vitality Score” value in series [1] is on record as 52.0.
